According to the NIST ThermoML archive (doi:10.1021/je0497496):
“And” between values parts separate entries of the source, which are not always exact repeats. Equal entries are not always repeated. Numbers after ± are expanded uncertainties.

Conditions: for vapor or sublimation pressure: Closed cell (Static) method; for mass density: buoyancy

FCC(F)(F)F [1,1,1,2-tetrafluoroethane]
Liquid
Conditions | mass density | vapor or sublimation pressure
253.13 K | 1358.69 ± 0.4 kg/m3 and 1358.7 ± 0.4 kg/m3 | 133.58 ± 1.1 kPa and 133.6 ± 1.1 kPa
262.99 K | 1327.33 ± 0.4 kg/m3 | 200.47 ± 1.1 kPa
263 K | 1327.31 ± 0.4 kg/m3 | 200.48 ± 1.1 kPa
273.31 K | 1293.96 ± 0.39 kg/m3 | 295.5 ± 1.2 kPa
283.16 K | 1260.66 ± 0.38 kg/m3 | 415.71 ± 1.3 kPa
283.17 K | 1260.67 ± 0.38 kg/m3 | 415.71 ± 1.3 kPa
293.22 K | 1225.34 ± 0.38 kg/m3 and 1225.33 ± 0.38 kg/m3 | 571.94 ± 1.5 kPa and 571.98 ± 1.5 kPa
303.25 K | 1187.23 ± 0.37 kg/m3 | 771.67 ± 1.7 kPa
303.26 K | 1187.22 ± 0.37 kg/m3 | 771.76 ± 1.7 kPa
313.18 K | 1146.44 ± 0.37 kg/m3 | 1018.1 ± 2.1 kPa
323.19 K | 1102.35 ± 0.36 kg/m3 | 1319.8 ± 2.5 kPa
323.2 K | 1102.34 ± 0.36 kg/m3 | 1319.9 ± 2.5 kPa
333.16 K | 1052.61 ± 0.37 kg/m3 | 1683 ± 3.1 kPa
333.17 K | 1052.6 ± 0.37 kg/m3 | 1683.2 ± 3.1 kPa
343.03 K | 997.103 ± 0.38 kg/m3 | 2110.6 ± 3.8 kPa
343.04 K | 997.091 ± 0.38 kg/m3 | 2110.9 ± 3.8 kPa
353.16 K | 928.313 ± 0.41 kg/m3 and 928.306 ± 0.41 kg/m3 | 2633.6 ± 4.7 kPa and 2633.7 ± 4.7 kPa
363.17 K | 837.765 ± 0.43 kg/m3 | 3245.3 ± 5.6 kPa
363.18 K | 837.734 ± 0.43 kg/m3 | 3245.5 ± 5.6 kPa

Fluid (supercritical or subcritical phases)
Conditions | mass density
262.98 K, 30.04 kPa | 1.41703 ± 0.052 kg/m3
262.99 K, 30.02 kPa | 1.41553 ± 0.052 kg/m3 and 1.41816 ± 0.052 kg/m3
262.99 K, 50.03 kPa | 2.37378 ± 0.052 kg/m3
262.99 K, 80.08 kPa | 3.83561 ± 0.053 kg/m3
262.99 K, 100.09 kPa | 4.82696 ± 0.055 kg/m3
262.99 K, 150.06 kPa | 7.37304 ± 0.055 kg/m3
273.31 K, 50 kPa | 2.27757 ± 0.051 kg/m3 and 2.2813 ± 0.051 kg/m3
273.31 K, 100.01 kPa | 4.6218 ± 0.052 kg/m3
273.31 K, 150.01 kPa | 7.03559 ± 0.053 kg/m3
273.31 K, 200 kPa | 9.53172 ± 0.055 kg/m3
273.32 K, 250 kPa | 12.1179 ± 0.056 kg/m3
283.16 K, 100.09 kPa | 4.4428 ± 0.051 kg/m3
283.16 K, 200.02 kPa | 9.12611 ± 0.052 kg/m3
283.16 K, 300.08 kPa | 14.1052 ± 0.054 kg/m3
283.17 K, 100.1 kPa | 4.44579 ± 0.051 kg/m3
283.17 K, 350.92 kPa | 16.7525 ± 0.056 kg/m3
293.21 K, 399.98 kPa | 18.4354 ± 0.056 kg/m3
293.21 K, 500.02 kPa | 23.7422 ± 0.057 kg/m3
293.22 K, 100.05 kPa | 4.27783 ± 0.049 kg/m3 and 4.27519 ± 0.049 kg/m3
293.22 K, 200.05 kPa | 8.76202 ± 0.05 kg/m3 and 8.75976 ± 0.05 kg/m3
293.22 K, 300.02 kPa | 13.4608 ± 0.052 kg/m3
303.25 K, 100.02 kPa | 4.1211 ± 0.048 kg/m3 and 4.12406 ± 0.048 kg/m3
303.26 K, 299.99 kPa | 12.8979 ± 0.05 kg/m3
303.26 K, 499.91 kPa | 22.542 ± 0.056 kg/m3
303.26 K, 711.4 kPa | 34.0053 ± 0.059 kg/m3
313.17 K, 100.02 kPa | 3.98495 ± 0.046 kg/m3 and 3.98345 ± 0.046 kg/m3
313.17 K, 200.04 kPa | 8.11408 ± 0.048 kg/m3
313.17 K, 600.21 kPa | 26.4214 ± 0.055 kg/m3
313.17 K, 902.11 kPa | 42.8957 ± 0.062 kg/m3
313.18 K, 400.01 kPa | 16.8674 ± 0.05 kg/m3
313.18 K, 800.41 kPa | 37.0004 ± 0.059 kg/m3
323.19 K, 100.02 kPa | 3.85767 ± 0.045 kg/m3 and 3.85694 ± 0.045 kg/m3
323.19 K, 500 kPa | 20.6111 ± 0.051 kg/m3
323.19 K, 940.01 kPa | 42.4962 ± 0.064 kg/m3
323.19 K, 1271.1 kPa | 62.9174 ± 0.068 kg/m3
323.2 K, 300 kPa | 11.9392 ± 0.047 kg/m3
323.2 K, 802.37 kPa | 35.149 ± 0.054 kg/m3
333.16 K, 101.53 kPa | 3.7964 ± 0.044 kg/m3
333.16 K, 303.79 kPa | 11.6786 ± 0.045 kg/m3
333.16 K, 1500 kPa | 73.4336 ± 0.072 kg/m3
333.17 K, 101.53 kPa | 3.79264 ± 0.044 kg/m3
333.17 K, 502.7 kPa | 19.9182 ± 0.049 kg/m3
333.17 K, 801.13 kPa | 33.4094 ± 0.052 kg/m3
333.17 K, 1009.4 kPa | 43.8443 ± 0.059 kg/m3
333.17 K, 1300.4 kPa | 60.3214 ± 0.066 kg/m3
343.03 K, 136.28 kPa | 4.96602 ± 0.043 kg/m3
343.03 K, 1500 kPa | 68.2379 ± 0.068 kg/m3
343.03 K, 1704.5 kPa | 81.5238 ± 0.075 kg/m3
343.04 K, 136.71 kPa | 4.97127 ± 0.043 kg/m3
343.04 K, 303.78 kPa | 11.2865 ± 0.044 kg/m3
343.04 K, 520.7 kPa | 19.9261 ± 0.047 kg/m3
343.04 K, 849.11 kPa | 34.1538 ± 0.05 kg/m3
343.04 K, 1093.8 kPa | 45.8644 ± 0.055 kg/m3
343.04 K, 1300.4 kPa | 56.7069 ± 0.061 kg/m3
343.04 K, 1900.2 kPa | 96.118 ± 0.087 kg/m3
353.16 K, 136.72 kPa | 4.81465 ± 0.043 kg/m3
353.16 K, 500.97 kPa | 18.447 ± 0.045 kg/m3
353.16 K, 2000.3 kPa | 94.8889 ± 0.078 kg/m3
353.16 K, 2200.5 kPa | 110.087 ± 0.093 kg/m3
353.17 K, 1000.4 kPa | 39.3925 ± 0.052 kg/m3
353.17 K, 1508.8 kPa | 64.532 ± 0.061 kg/m3
353.17 K, 2408.1 kPa | 128.821 ± 0.11 kg/m3
363.17 K, 153.67 kPa | 5.26494 ± 0.041 kg/m3
363.17 K, 500.5 kPa | 17.8052 ± 0.044 kg/m3
363.17 K, 1001.1 kPa | 37.7848 ± 0.048 kg/m3
363.17 K, 3101.3 kPa | 188.758 ± 0.19 kg/m3
363.18 K, 1500.8 kPa | 60.7126 ± 0.055 kg/m3
363.18 K, 2003.2 kPa | 88.1709 ± 0.069 kg/m3
363.18 K, 2500.4 kPa | 122.731 ± 0.095 kg/m3
363.18 K, 2800.4 kPa | 150.158 ± 0.13 kg/m3
363.18 K, 3002.1 kPa | 174.085 ± 0.16 kg/m3
